Assay results published in patent US10064841B1, “Isoandrographolide-19-propionate for treatment of non-alcoholic fatty liver disease (NAFLD)” (KING SAUD UNIVERSITY, priority 2018, dated 2018).

Assays:
Format in all cases: cell-based
[1] = system: HepG2 cells; test: MTT toxicity assay; conditions: 24 h; for GI50: Homo sapiens, test materials 100-500 μM, linear regression
Protocol: The cytotoxic effect was analyzed by using the MTT assay as described by Mosmann, J. Immunol Methods. 65:55-63 (1983), with minor modification. HepG2 cells were seeded at 5×10^3 cells/well into a 96-well plate and incubated for 24 h. Spent media was then replaced with fresh media containing test materials (100-500 μM) dissolved in DMSO. Vehicle control cells were treated only with DMSO. The plates were incubated in a CO2 incubator for 24 h. The spent media was then replaced with sterile MTT solution (5 mg/mL in PBS at pH—7.4; 100 μL/well) and incubated for another 3 h. The unreacted MTT dye was removed, and the formazan crystals were dissolved with DMSO (200 μL/well) and kept in dark for 30 min. The resulting purple color was quantified by measuring absorbance at 570 nm. The assays were performed thrice and the results were expressed in percentage in comparison to vehicle-treated cells. The following formula was used for calculation.
[formula] GI50 values were calculated using linear regression analysis.

[2] = system: palmitate-oleate induced steatotic HepG2 cells; test: Reduction of Oil Red O stain in palmitate-oleate induced steatotic HepG2 cells; conditions: Homo sapiens, PO-BSA 1 mM, 24 h, test materials 12.5-50 μM
Protocol: (§1) Induction of steatosis was done in accordance with the protocol of Hetherington and coworkers, Cell Physiol Biochem. 39:1648-62 (2016), with slight modification. HepG2 cells were loaded in 24-well cell culture plates at a density of 4×10^4 cells/well and kept overnight. On the next day, the media were replaced with fresh media containing PO-BSA at 1 mM concentration, with or without test materials (12.5-50 μM) dissolved in DMSO. The cells supplemented with media containing only BSA (instead of PO-BSA) and treated with DMSO (FIG. 2A) served as the normal control. The cells supplemented with media containing PO-BSA and treated with DMSO (FIG. 2B) served as negative control. Fenofibrate (12.5-50 μM) (FIG. 2C) was used as the positive control. After 24 h of treatment, the cells were taken for the analyses.
After treatment, the amount of lipids accumulated into the cells was measured using ORO staining. Briefly, 24 h after treatment, the spent media was removed and the cells were fixed by incubating them with 10% formalin in PBS for 1 h at room temperature. Each well was washed with 60% aqueous isopropanol and was allowed to dry. […] Cell morphology was assessed and photographed (400×) using an inverted microscope. The ORO stain was eluted with 100% isopropanol and measured at 500 nm. […] The results were expressed as the percentage of absorbance of the sample to the absorbance of the control blank.

[3] = system: palmitate-oleate induced steatotic HepG2 cells; test: Triglyceride accumulation in palmitate-oleate induced HepG2 cells; conditions: 50 μM, 24 h
Protocol: as §1
(§2) After treatment, the cells were harvested and lysed using 1×PBS under sonication at 3× for five second intervals at 40V setting over ice. The cell lysates were taken and estimated for TG and protein using commercial spectrophotometric kits. TG levels were normalized to the protein content, and results were expressed as mg TG/g protein. The MDA levels in the cell lysate were estimated using a commercial spectrophotometric kit. The levels of ALT were measured in the spent media, and cell lysate and percent ALT leakage was calculated using the following formula: […]

[4] = system: palmitate-oleate induced steatotic HepG2 cells; test: Lipoperoxide formation (MDA/TBARS) in palmitate-oleate induced HepG2 cells; conditions: 50 μM, 24 h
Protocol: as §1, §2

[5] = system: palmitate-oleate induced steatotic HepG2 cells; test: ALT leakage of palmitate-oleate induced HepG2 cells; conditions: 24 h
Protocol: as §1, §2

Compound | GI50 [1] [µM] | EC50 [2] [µM] | toxicity compared with AN (MTT assay) [1] | triglyceride level [3] | lipoperoxide formation [4] | ALT leakage [5]
C=C1CC[C@@H]2[C@](C)(CO)[C@H](O)CC[C@@]2(C)[C@@H]1C/C=C1/C(=O)OC[C@H]1O [AN, Andrographolide] | 254 | 43.3 |  |  |  | 
CCC(=O)OCC1(C)[C@H](O)CC[C@@]2(C)C3C[C@@H](C4=CCOC4=O)O[C@]3(C)CC[C@H]12 (some centres unmarked) [IAN-19P, isoandrographolide-19-propionate] | 27000 | 8.92 | comparatively lower toxicity than AN | come to normal | significantly lowered | lowered ALT leakage
